# Laboratory results published in patent US20250243220A1, “ATR INHIBITORS” (APREA THERAPEUTICS, INC., priority 2022, published 2025).
# What was measured:
# Type in all cases: cell-based
# [1] = test system: OVCAR-8; assay: IC50 assay by Western blot (APH-treated cells), OVCAR-8; conditions: OVCAR-8 cells; for IC50: Homo sapiens
# Procedure: (§1) E. Treatment of Cells for IC50 Assay by Western Blot
# (§2) The compound is stored as a 1 mM stock solution prepared in accordance with the Receipt of Compound SOP. The stock solution is diluted in cell media in two separate 1:10 dilution series.
# (§3) 1. Arrange twelve 15-mL centrifuge tubes in a rack in two series and label them in accordance with Dilutions Series 1 and Dilution Series 2 shown in Table 1 and Table 2, respectively.
# (§4) 2. Place 2.5 mL of prewarmed cell media in each of the […]. Place 2.25 mL of prewarmed cell media in the remaining tubes.
# (§5) 3. Add 7.5 μL of 1 mM compound stock solution in the 3 μM tube. Mix well.
# (§6) 4. Add 2.5 μL of 1 mM compound stock solution in the 1 μM tube. Mix well.
# (§7) 5. For each series (separately), remove 250 μL from the leftmost tube and transfer to the next tube to the right. Repeat for each tube until the series is complete.
# (§8) 6. Set aside the 1 μM tube, the 3 μM tube, and the 300 nM tube for discard.
# (§9) 7. The cells to be treated will be in 6-well plates labeled by cell line. Remove the cells from the incubator and label the wells with the dosages to be administered.
# (§10) 8. Arrange the dilution tubes in the rack in a manner that reflects the 6-well plate arrangement so as to avoid confusion when administering the dosage solutions to the appropriate wells.
# (§11) 9. Aspirate the three wells in the top row of the first plate (labeled NT, APH+, and APH+) and replace with 2 mL fresh media (without drug compound).
# (§12) 10. Aspirate the three wells in the bottom row of the first plate and replace each well with 2 mL of solution from the appropriate tube.
# (§13) 11. Repeat step 10 for the next row of wells (top row second plate). and then for the final row of wells (bottom row second plate).
# (§14) 12. Place both plates into the incubator for 30 minutes.
# (§15) 13. After 30 minutes have elapsed, remove the plates from the incubator.
# (§16) 14. Acquire stock solution of APH (5 mM) and add 2 μL of the APH stock solution to the center of each well except the well labeled NT.
# (§17) 15. Swirl the plates carefully and gently to diffuse the APH throughout each well.
# (§18) 16. Place the plates back in the incubator for 4 hours, at which point the cells will be harvested for analysis.
# (§19) 17. Twenty minutes before harvesting (or 3 hours and 40 minutes after administration of APH), turn on a heat block suitable to heat Eppendorf tubes. Set the temperature to 95° C.
# (§20) 18. Set up a number of Eppendorf tubes equal to the number of wells treated (i.e., twelve per two-plate drug administration), and label each tube with cell line, compound administered, dosage level, and date. Leave the tubes open.
# (§21) 19. Add 200 mL DI water to a beaker.
# (§22) 20. After 4 hours, remove treated plates from incubator.
# (§23) 21. Aspirate media from all wells.
# (§24) 22. Wash each well with 2 mL 1×PBS and aspirate.
# (§25) 23. Sterilize vacuum line with 70% ethanol by spraying some into the nozzle while the vacuum is engaged. Shut off vacuum.
# (§26) 24. Add Laemmli buffer to each well. For HCT116 Bcl/xl, OVCAR-3, and 22RV1 cells, add 300 μL per well; for OVCAR-8 and SKOV-3 cells, add 250 μL per well.
# (§27) 25. Scrape the first well thoroughly. Place the scraper into the DI water between uses.
# (§28) 26. Transfer the lysed cell debris mixture to the first tube carefully. The mixture will be viscous. Use a 1000-μL pipettor. Close the tube.
# (§29) 27. Repeat steps 25 and 26 for each well.
# (§30) 28. When all wells have been harvested, place all the tubes into the heat block. Place a weighted, heat-resistant object on top of the tubes to keep them closed.
# (§31) 29. After 5 minutes, remove the tubes from the heat block and turn it off. Vortex each tube for 10 seconds. Be cautious of tubes popping open.
# (§32) 30. Allow the tubes to come to room temperature and proceed to further analysis or store frozen at −20° C.
# [2] = test system: SKOV-3; assay: IC50 assay by Western blot (APH-treated cells), SKOV-3; conditions: SKOV-3 cells; for IC50: Homo sapiens, SK-OV-3
# Procedure: as §1, §2, §3, §4, §5, §6, §7, §8, §9, §10, §11, §12, §13, §14, §15, §16, §17, §18, §19, §20, §21, §22, §23, §24, §25, §26, §27, §28, §29, §30, §31, §32
# [3] = test system: 22RV1; assay: IC50 assay by Western blot (APH-treated cells), 22RV1; conditions: 22RV1 cells; for IC50: Homo sapiens
# Procedure: as §1, §2, §3, §4, §5, §6, §7, §8, §9, §10, §11, §12, §13, §14, §15, §16, §17, §18, §19, §20, §21, §22, §23, §24, §25, §26, §27, §28, §29, §30, §31, §32
# [4] = test system: HCT Bcl/xl, OVCAR-3, OVCAR-8, SKOV-3, 22RV1 cell lines; assay: Ave. IC50 across cell lines; conditions: average across cell lines
# [5] = test system: HCT116 Bcl/xl; assay: IC50 assay by Western blot (APH-treated cells), HCT116 Bcl/xl; conditions: for IC50: Homo sapiens, HCT-116
# Procedure: as §1, §2, §3, §4, §5, §6, §7, §8, §9, §10, §11, §12, §13, §14, §15, §16, §17, §18, §19, §20, §21, §22, §23, §24, §25, §26, §27, §28, §29, §30, §31, §32
# [6] = test system: OVCAR-3; assay: IC50 assay by Western blot (APH-treated cells), OVCAR-3; conditions: OVCAR-3 cells; for IC50: Homo sapiens
# Procedure: as §1, §2, §3, §4, §5, §6, §7, §8, §9, §10, §11, §12, §13, §14, §15, §16, §17, §18, §19, §20, §21, §22, §23, §24, §25, §26, §27, §28, §29, §30, §31, §32
# [7] = MEC (+APH)
IC50 [1] [nM],IC50 [2] [nM],IC50 [3] [nM],IC50 [4] [nM],IC50 [5] [nM],IC50 [6] [nM],Compound,PALD (Percent Activity at Lowest Dose tested) OVCAR-8 [1],PALD (Percent Activity at Lowest Dose tested) SKOV-3 [2],PALD (Percent Activity at Lowest Dose tested) 22RV1 [3],PALD (Percent Activity at Lowest Dose tested) HCT Bcl/xl [5],PALD (Percent Activity at Lowest Dose tested) OVCAR-3 [6],minimal effective concentration [7] [µM]
2.16,2.85,4.69,3.29,2.68,4.09,"CNCc1cccc2c1OCCCCCC[C@](C)(O)CC(C)(C)S(=O)(=O)c1ccc(cc1)-c1cnc(N)c(n1)C(=O)N2 (single isomer, unassigned) [Compound A-1]",(91%),(81%),(121%),(110%),(116%),2e-05
2.95,2.71,3.44,2.42,2.29,0.753,"CNCc1cccc2c1OCCCCCC[C@@](C)(O)CC(C)(C)S(=O)(=O)c1ccc(cc1)-c1cnc(N)c(n1)C(=O)N2 (single isomer, unassigned) [Compound A-2]",(82%),(110%),(107%),(91%),(101%),2e-05
7.06,1.57,4.95,5.12,4.61,7.43,"CNCc1cccc2c1OCCCCCC[C@](C)(O)CC1(CC1)S(=O)(=O)c1ccc(cc1)-c1cnc(N)c(n1)C(=O)N2 (single isomer, unassigned) [Compound B-1]",(132%),(106%),(98%),(93%),(105%),4e-05
2.62,0.97,1.89,2.32,3,3.12,"CNCc1cccc2c1OCCCCCC[C@@](C)(O)CC1(CC1)S(=O)(=O)c1ccc(cc1)-c1cnc(N)c(n1)C(=O)N2 (single isomer, unassigned) [Compound B-2]",(115%),(115%),(101%),(81%),(94%),2e-05
2.47,3.2,2.03,4.92,5.41,11.5,"CC1(C)C[C@](C)(O)CCCCCCOc2c(CN)cccc2NC(=O)c2nc(cnc2N)-c2ccc(cc2)S1(=O)=O (single isomer, unassigned) [Compound C-2]",(100%),(95%),(92%),(71%),(95%),1e-05
86.6,107,275,123,57.1,91.8,"C[C@@H]1COCCN1c1cc(C2([S@](C)(=N)=O)CC2)nc(-c2cc[nH]c3nccc2-3)n1 [AZD 6738, reference compound]",(116%),(105%),(165%),,(190%),0.0003
84.6,9.5,84.9,50,62.1,11.5,"CNCc1ccc(-c2cc(-c3nc(-c4ccc(S(=O)(=O)C(C)C)cc4)cnc3N)on2)cc1 [VE822, reference compound]",(89%),(55%),(86%),(105%),(79%),0.0003
